Here are results for two molecules from patent US20200206257A1, “HOMOGENEOUS POLY[…]-B4, DERIVED FROM HERBA EPHEDRA, PREPARATION METHOD AND MEDICAL USE THEREOF” (priority 2018, published 2020).

Several values for one entry are separate records, joined by “and”; a condition that tells them apart may be missing. Equal entries are not always repeated.

The subject of assay [1] is LPS-induced acute lung injury in mice. Nature of the assay: LPS-induced acute lung injury in mice, inflammatory factors in lung tissue homogenate. The settings on record: 50 mg/kg intraperitoneal, 7 days, left lung homogenate, mean±SD. The assay is classed as in vivo.
The subject of assay [2] is Escherichia coli-induced pneumonia in mice. Nature of the assay: Escherichia coli-induced pneumonia in mice, inflammatory factors in lung tissue homogenate. The assay is classed as in vivo. As to conditions: 100 mg/kg intragastric (positive control), 7 days, left lung homogenate, mean±SD.

In the case of `C[C@@H]1C[C@H]2[C@@H]3CCC4=CC(=O)C=C[C@]4(C)[C@@]3(F)[C@@H](O)C[C@]2(C)[C@@]1(O)C(=O)CO` [Dexamethasone, dexamethasone], in assay [1], the IL-6 is 255.18 ± 35.63 pg/mL, the IL-8 is listed as 52.7 ± 9.99 pg/mL, the TNF-α was 861.41 ± 71.04 pg/mL and the “Tp (Total protein)” value worked out at 202.40 ± 16.54 µg/mL.

As to gentamicin sulfate [Gentamycin Sulfate], in assay [2], the IL-6 came out at 285.16 ± 32.71 pg/mL; the IL-8 was 49.36 ± 10.01 pg/mL; the TNF-α came to 834.10 ± 70.10 pg/mL; the Tp result is “significantly decreased and 197.05 ± 14.20 μg/mL”. Moreover, in assay [2] (listed as gentamicin sulfate), the IL-6 result is “significantly decreased”, the IL-8 result is listed as “significantly decreased” and the TNF-α result is “significantly decreased”.
